Laboratory results published in PubChem BioAssay AID489040 (Sanford-Burnham Center for Chemical Genomics, 2010).
Activity calls are given as the source filed them.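 How the source made its calls: active means mean half-maximal activating concentration from the dose-response fit at or below a set limit; inactive means the rest.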

molecular target: CHO-XBP1 luciferase reporter, IRE1-XBP1 UPR activation; test: activators of IRE1-XBP1 UPR arm, dose response, counter-screen for apoptotic UPR arm activators, CHO-XBP1 cells, luminescence (AID 489040);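 further: reporter read after six hours of compound exposure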

SMILES | EC50
Cc1[nH]c2c(C)cccc2c1CCNC(=O)c1ccc2c(c1[N+](=O)[O-])C(=O)c1ccccc1C2=O | > 80 µM (inactive)
O=C(/C=C/c1ccc([N+](=O)[O-])cc1)/C=C/c1ccco1 | > 80 µM (inactive)
Cc1ccc(N2CCN(c3ccc(NCc4nc5ccccc5n4C)cc3)CC2)cc1 | inactive
CCOC(=O)C1=C(CCl)NC(=O)NC1c1ccc2c(c1)OCO2 (stereo not drawn) | > 80 µM (inactive)
Cc1ccc(N2C(=O)NC(=O)/C(=C/C=C/c3ccco3)C2=O)cc1 | > 80 µM (inactive)
O=[N+]([O-])c1cc(O)c2ncccc2c1 | > 80 µM (inactive)
C=CCn1c(O)c(N=NC(=S)Nc2ccccc2F)c2cc(S(=O)(=O)N3CCOCC3)ccc21 | > 80 µM (inactive)
Cc1cccnc1Nc1nc(-c2ccccn2)cs1 | > 80 µM (inactive)
O=C(Nc1ccc(Cl)cc1)/C(=C/c1cccc(O)c1)c1nc2ccccc2s1 | > 80 µM (inactive)
COc1ccccc1-c1cc(C(F)(F)F)nc(S(=O)(=O)CCCC(=O)N2CCCCC2C)n1 (stereo not drawn) | > 80 µM (inactive)
Cc1cc(C(=O)CCl)c(C)n1-c1cccc(S(=O)(=O)N2CCOCC2)c1 | > 80 µM (inactive)
O=c1c2c3c(sc2ncn1/N=C/c1ccc([N+](=O)[O-])o1)CCCC3 | > 80 µM (inactive)
CCc1cccc2sc(N3CCN(C(=O)c4ccc([N+](=O)[O-])o4)CC3)nc12 | > 80 µM (inactive)
C/C(=C\c1ccc(N(C)C)cc1)[N+](=O)[O-] | > 80 µM (inactive)
CC1=CC(C)(C)Nc2ccc(OC(=O)CN3C(=O)CCC3=O)cc21 | > 80 µM (inactive)
O=C(NCCc1ccc(F)cc1)c1coc(=O)c(Br)c1 | > 80 µM (inactive)
N#CC1=C(N)OC2=C(CC/C2=C\c2ccccc2)C1c1ccccc1 (stereo not drawn) | > 80 µM (inactive)
CC(C)c1ccc(/C=C(\c2nc3ccccc3[nH]2)S(=O)(=O)c2ccccc2)cc1 | > 80 µM (inactive)
CCOC(=O)C(=CNc1nc(-c2ccccc2)c(C(=O)Nc2ccc(-c3ccccc3)cc2)s1)C(=O)OCC | inactive
CCOC(=O)c1cnc(Nc2nc3ccccc3o2)nc1CSC(=S)N1CCCCC1 | 9.07 µM
Oc1ccc(/C=N/Nc2cc(N3CCOCC3)nc(N3CCOCC3)n2)cc1O | > 80 µM (inactive)
CCOC(=O)N1CCN(S(=O)(=O)c2ccc(C(=O)Nc3nc4c(s3)CC(C)CC4)cc2)CC1 (stereo not drawn) | > 80 µM (inactive)

SMILES | EC50
COc1cc(/C=C2\COC/C(=C\c3ccc(O)c(OC)c3)C2=O)ccc1O | > 80 µM (inactive)
COc1cc(/C=C(/C#N)c2nc3ccccc3[nH]2)ccc1OCC(=O)Nc1ccccc1C | > 80 µM (inactive)
COc1ccc(NS(=O)(=O)c2ccc3ccccc3c2)c2ncccc12 | > 80 µM (inactive)
COc1ccc(C2Nc3ccc4ccccc4c3-c3c2c(=O)oc2ccccc32)cc1 (stereo not drawn) | 9.62 µM
O=S(=O)(Nc1cccc2cccnc12)c1ccc(S(=O)(=O)N2CCCC2)cc1 | > 80 µM (inactive)
COc1ccccc1N=Cc1c(O)c2ccccc2oc1=O | 8.05 µM
CC(C)N1C(=O)/C(=C/C=C/c2ccco2)C(=O)N(Cc2ccco2)C1=O | > 80 µM (inactive)
COc1ccc(/C=C/c2ccc3cccc(O)c3n2)c(OC)c1OC | > 80 µM (inactive)
Cc1cc(C)nc(SCc2ccc(C(=O)N/N=C/c3cccc(O)c3O)cc2)n1 | > 80 µM (inactive)
Cc1ccc(N2C(=O)NC(=O)/C(=C/c3cnn(-c4ccc(C)cc4)c3)C2=O)cc1 | > 80 µM (inactive)
O=C(N/N=C(\c1ccccc1)c1ccccn1)c1cccc([N+](=O)[O-])c1 | > 80 µM (inactive)
O=C(Nc1ccc2oc(-c3ccncc3)nc2c1)c1ccc([N+](=O)[O-])o1 | > 80 µM (inactive)
CCCCCC(=O)Nc1ccc(C(=O)N/N=C/c2ccc([N+](=O)[O-])cc2)cc1 | > 80 µM (inactive)
O=C(CCN1C(=O)/C(=C\c2ccccc2F)SC1=S)N1CCCCC1 | > 80 µM (inactive)
CC1CCN(Cc2c(C(=O)N/N=C/c3ccc(C(C)(C)C)cc3)nnn2-c2nonc2N)CC1 | > 80 µM (inactive)
O=C(Nc1nc(-c2ccc3ccccc3c2)cs1)c1ccc(N2C(=O)CCC2=O)cc1 | > 80 µM (inactive)
O=S1(=O)Nc2c(ccc3cccnc23)-c2ccccc21 | > 80 µM (inactive)
Cc1ccc(-c2cc(-c3ccc(C)cc3)[n+](-c3ccccc3)c(-c3ccc(C)cc3)c2)cc1 | > 80 µM (inactive)
Cc1ccc(Sc2c([N+](=O)[O-])c(=O)n(C)c3ccccc23)cc1 | > 80 µM (inactive)
CCOC(=O)c1sc(NC(=S)NC(=O)c2ccccc2)c(C(=O)OCC)c1C | > 80 µM (inactive)
Oc1ccc(CN2CCN(Cc3ccccc3)CC2)c2cccnc12 | > 80 µM (inactive)
